Data on 28 compounds can be found in patent publication US20120202794A1 (priority 2011, published 2012).

A short description of series [1]: Cell cytotoxicity assay (MTS), CC90 as reported in Table 1, cell line not stated. It counts as cell-based. The settings on record: human, cell line not given. How it is done: Cell cytotoxicity assays. Each compound (serially diluted from 100 μM) was added to Huh7 (2×10^3 cells/well), HepG2 (2×10^3 cells/well), BxPC3 (2×10^3 cells/well), or CEM (5×10^3 cells/well) cells and allowed to incubate for 8 days at 37° C. A medium only control was used to determine the minimum absorbance value […]. At the end of the growth period, MTS dye from the CellTiter 96 Aqueous One Solution Cell Proliferation Assay kit (Promega) was added to each well and the plate was incubated for an additional 2 hours. The absorbance at 490 nm was read with a Victor3 plate reader (Perkin Elmer) using the medium only control wells as blanks. The 90% inhibition value (CC90) was determined by comparing the absorbance in wells containing cells and test compound to untreated cell control wells.

In series [2] the test system is HCV Replicon 1b. The series is described as follows: HCV inhibition assay, HCV replicon 1b (Clone A or ET-lunet cells; RT-PCR or luciferase reporter). Type of series: cell-based. The settings on record: Hepatitis C virus, 96 h, HCV replicon 1b; 4 days incubation; read-out: Replicon 1b potency EC90. The procedure:
HCV inhibition assay. Clone A or ET-lunet cells were seeded at a density of 1500 or 3000 cells per well in a 96-well plate, respectively. Test compounds serially diluted in culture medium without G418 were added to cells so that the final DMSO concentration was 0.5%. Plates were incubated at 37° C. in a 5% CO2 atmosphere for 4 days. Inhibition of HCV RNA replication was determined by real time PCR (RT-PCR) or by measuring the levels of luminescence expressed via the luciferase reporter gene encoded within the ET replicon. Briefly, for the RT-PCR assay, total RNA was extracted using the RNeasy-96 kit as recommended by the manufacturer (Qiagen, Valencia, Calif.), reversed transcribed into cDNA, and amplified using primer and probe mix for HCV 5′-NTR RNA and human ribosomal RNA (rRNA) in a one-step RT-PCR reaction as described previously (50). A relative quantification method was used to determine the extent of inhibition. The threshold cycle (Ct) of rRNA was subtracted from the Ct of HCV RNA (ΔCt). The average ΔCt of the DMSO cell controls was then subtracted from the ΔCt of the compound treated sample (ΔΔCt). Percent inhibition was determined by using the following equation: %=(1−(2^−ΔΔC^t))×100. For the luciferase-based replicon assay, luminescence was measured by using a Victor3 plate reader (Perkin-Elmer, Boston, Mass.) following the addition of Bright-Glo reagent as recommended by the manufacturer (Promega, Madison, Wis.). Percent inhibition of HCV replication was determined by comparing the change in luminescence of the drug treated wells versus the DMSO cell controls. EC50 and EC90 values, the concentrations at which 50% and 90% inhibition were achieved, were determined using the GraphPad Prism software (San Diego, Calif.).
On the technique in general: A replicon is a self-replicating genome or part of one, used to study replication in cells.

Broadly, the EC90 is the point of the concentration-response curve where the effect stands at 90%. In series [1], `CCC[C@H]1CN(C(=O)c2nc(-c3ccc(F)cc3)no2)[C@@H](CC(C)C)C(=O)N1` [Compound 149] displayed a CC90 at 8 days of over 10 µM. Further, in series [2], the 90% effect concentration (EC90) is 0.05 µM.

For the compound `CC(C)C[C@H]1CN(C(=O)C#Cc2ccc(Cl)cc2F)[C@@H](CC(C)C)C(=O)N1` [Compound 119], the CC90 at 8 days in series [1] is over 10 µM. Besides, in series [2], the EC90 was determined as 6.2 µM.

Compound `CC(C)C[C@H]1CN(C(=O)c2cc(-c3ccc(F)c(Cl)c3)on2)[C@@H](CC(C)C)C(=O)N1` [Compound 141] came in with a CC90 at 8 days in series [1] of over 10 µM. Also, the EC90 in series [2] is 1.78 µM.

Compound `CC(C)C[C@H]1C(=O)N[C@@H](c2ccccc2)CN1C(=O)[C@@H]1C[C@H]1c1ccc(Cl)cc1` [Compound 248, (3S,6S)-4-[(1R,2R)-2-(4-Chloro-phenyl)-cyclopropanecarbonyl]-3-isobutyl-6-phenyl-piperazin-2-one] came in with a CC90 at 8 days in series [1] of over 10 µM. For the same compound, the EC90 in series [2] came to 0.16 µM.

On to `Cc1ccc(C#CC(=O)N2C[C@H](CC(C)C)NC(=O)[C@@H]2CC(C)C)cc1` [Compound 115], for which the CC90 at 8 days in series [1] was over 10 µM. Further, the concentration for an effect of 90% (EC90) in series [2] came to 5.01 µM.

In series [1] (MTS assay, 8 days incubation), `CC(C)C[C@H]1C(=O)N[C@@H](C2CCCCC2)CN1C(=O)c1noc(-c2ccc(F)c(F)c2)c1F` [Compound 396, (3S,6S)-6-cyclohexyl-4-(5-(3,4-difluorophenyl)-4-fluoroisoxazole-3-carbonyl)-3-isobutylpiperazin-2-one] displayed a CC90 at 8 days of over 10 µM. For the same compound, the EC90 in series [2] is 1.82 µM.

With `CC(C)C[C@H]1C(=O)N[C@@H](C2CCC2)CN1C(=O)[C@@H]1C[C@H]1c1ccc(F)cc1` [Compound 464, (3S,6S)-6-cyclobutyl-4-((1R,2R)-2-(4-fluorophenyl)cyclopropanecarbonyl)-3-isobutylpiperazin-2-one], the CC90 at 8 days in series [1] (MTS assay, 8 days incubation) was over 10 µM. Also, the concentration for an effect of 90% (EC90) in series [2] turned out to be 0.83 µM.

The compound `CSC[C@H]1CN(C(=O)c2noc(-c3ccc(F)cc3)n2)[C@@H](CC(C)C)C(=O)N1` [Compound 296, (3S,6R)-4-(5-(4-Fluorophenyl)-1,2,4-oxadiazole-3-carbonyl)-3-isobutyl-6-((methylthio)methyl)piperazin-2-one] showed a CC90 at 8 days in series [1] (MTS assay, 8 days incubation) of over 10 µM. The 90% effect concentration (EC90) in series [2] is 1.54 µM.

`CCC[C@H]1CN(C(=O)c2noc(-c3ccc(F)cc3F)c2F)[C@@H](CC(C)C)C(=O)N1` [Compound 387, (3S,6S)-4-(5-(2,4-difluorophenyl)-4-fluoroisoxazole-3-carbonyl)-3-isobutyl-6-propylpiperazin-2-one]: in series [1] (MTS assay, 8 days incubation), the CC90 at 8 days is over 10 µM. Moreover, in series [2], the EC90 amounted to 0.26 µM.

Take `CC(C)C[C@H]1CN(C(=O)c2noc(-c3ccc(F)cc3F)c2F)[C@@H](CC(C)C)C(=O)N1` [Compound 383, (3S,6S)-4-(5-(2,4-difluorophenyl)-4-fluoroisoxazole-3-carbonyl)-3,6-diisobutyl-piperazin-2-one]: the CC90 at 8 days in series [1] (MTS assay, 8 days incubation) was over 10 µM. Further, the EC90 in series [2] was found to be 0.71 µM.

`CC(C)C[C@H]1CN(Cc2cc(-c3ccc(F)cc3)on2)[C@@H](CC(C)C)C(=O)N1` [Compound 196] displayed a CC90 at 8 days in series [1] of over 10 µM. Also, in series [2], the EC90 turned out to be 0.08 µM.

With `CC(C)C[C@H]1C(=O)N[C@@H](C2CCCCC2)CN1C(=O)c1noc(-c2ccc(F)cc2)c1F` [Compound 382, (3S,6S)-6-cyclohexyl-4-(4-fluoro-5-(4-fluorophenyl)isoxazole-3-carbonyl)-3-isobutylpiperazin-2-one], the CC90 at 8 days in series [1] (MTS assay, 8 days incubation) is over 10 µM. Moreover, the EC90 in series [2] worked out at 0.37 µM.

In series [1] (MTS assay, 8 days incubation), `CC(C)C[C@H]1CN(C(=O)c2cc(-c3ccc(Cl)c(Cl)c3)on2)[C@@H](CC(C)C)C(=O)N1` [Compound 276, (3S,6S)-4-(5-(3,4-Dichlorophenyl)isoxazole-3-carbonyl)-3,6-diisobutylpiperazin-2-one] showed a CC90 at 8 days of over 10 µM. Besides, the EC90 in series [2] turned out to be 2.98 µM.

In series [1] (MTS assay, 8 days incubation), `CC(C)C[C@H]1C(=O)N[C@H](c2cccs2)CN1C(=O)c1cc(-c2ccc(F)cc2)on1` [Compound 428, (3S,6S)-4-(5-(4-fluorophenyl)isoxazole-3-carbonyl)-3-isobutyl-6-(thiophen-2-yl)piperazin-2-one] gave a CC90 at 8 days of over 10 µM. The EC90 in series [2] is over 10 µM.

`CC(C)C[C@H]1C(=O)N[C@@H](C2CCCC2)CN1C(=O)c1cc(-c2ccc(F)cc2)on1` [Compound 163] displayed a CC90 at 8 days in series [1] of over 10 µM. Moreover, the EC90 in series [2] is 0.09 µM.

In series [1], `COc1ccc(-c2cc(CN3C[C@H](CC(C)C)NC(=O)[C@@H]3CC(C)C)no2)cc1` [Compound 200, (3S,6S)-3,6-Diisobutyl-4-((5-(4-methoxyphenyl)isoxazol-3-yl)methyl)piperazin-2-one] gave a CC90 at 8 days of over 10 µM. The concentration for an effect of 90% (EC90) in series [2] came out at 5.79 µM.

For `CC(C)C[C@H]1C(=O)N[C@@H](C2CCCC2)CN1C(=O)c1noc(-c2ccc(F)cc2)c1F` [Compound 381, (3S,6S)-6-cyclopentyl-4-(4-fluoro-5-(4-fluorophenyl)isoxazole-3-carbonyl)-3-isobutylpiperazin-2-one], the CC90 at 8 days in series [1] (MTS assay, 8 days incubation) was over 10 µM. For the same compound, in series [2], the EC90 came to 0.25 µM.

With `CC(C)C[C@H]1C(=O)N[C@@H](c2ccc(F)cc2)CN1C(=O)[C@@H]1C[C@H]1c1ccccc1` [Compound 347, (3S,6S)-6-(4-fluorophenyl)-3-isobutyl-4-((1R,2R)-2-phenylcyclopropanecarbonyl)-piperazin-2-one], the CC90 at 8 days in series [1] (MTS assay, 8 days incubation) is over 10 µM. Also, in series [2], the EC90 was determined as 2.05 µM.

`CC(C)C[C@H]1CN(C(=O)c2cc(-c3ccc(Cl)cc3)no2)[C@@H](CC(C)C)C(=O)N1` [Compound 190]: in series [1], the CC90 at 8 days was over 10 µM. The EC90 in series [2] stood at 0.32 µM.

Take `COc1ccc(-c2cc(C(=O)N3C[C@H](CC(C)C)NC(=O)[C@@H]3CC(C)C)no2)cc1` [Compound 127]: in series [1], the CC90 at 8 days was over 10 µM. Moreover, the 90% effect concentration (EC90) in series [2] stood at 1.14 µM.

Compound `CC(C)C[C@H]1C(=O)N[C@@H](C2CCCCC2)CN1C(=O)[C@@H]1C[C@H]1c1ccc(Cl)cc1F` [Compound 252] came in with a CC90 at 8 days in series [1] of over 10 µM. The concentration for an effect of 90% (EC90) in series [2] stood at 0.67 µM.

In series [1] (MTS assay, 8 days incubation), `C=CC[C@H]1C(=O)N[C@@H](c2ccccc2)CN1C(=O)c1cc(-c2ccc(F)cc2)on1` [Compound 407, (3S,6S)-3-allyl-4-(5-(4-fluorophenyl)isoxazole-3-carbonyl)-6-phenylpiperazin-2-one] displayed a CC90 at 8 days of over 10 µM. Moreover, in series [2], the 90% effect concentration (EC90) amounted to 0.74 µM.

As for `CC(C)[C@H]1C(=O)N[C@@H](c2ccccc2)CN1C(=O)c1nc(-c2ccc(F)cc2)no1` [Compound 404, (3S,6S)-4-(3-(4-fluorophenyl)-1,2,4-oxadiazole-5-carbonyl)-3-isopropyl-6-phenyl-piperazin-2-one], the CC90 at 8 days in series [1] (MTS assay, 8 days incubation) is over 10 µM. Moreover, the 90% effect concentration (EC90) in series [2] came to 1.58 µM.

The compound `C=CC[C@H]1C(=O)N[C@@H](c2ccccc2)CN1C(=O)c1noc(-c2ccc(F)cc2)n1` [Compound 465, (3S,6S)-3-allyl-4-(5-(4-fluorophenyl)-1,2,4-oxadiazole-3-carbonyl)-6-phenyl-piperazin-2-one] had a CC90 at 8 days in series [1] (MTS assay, 8 days incubation) of over 10 µM. The EC90 in series [2] was determined as 0.29 µM.

`CC(C)C[C@H]1C(=O)N[C@@H](CC(C)(C)C)CN1C(=O)[C@@H]1C[C@H]1c1ccccc1` [Compound 280, (3S,6S)-3-isobutyl-6-neopentyl-4-((1R,2R)-2phenylcyclopropanecarbonyl)piperazin-2-one] had a CC90 at 8 days in series [1] (MTS assay, 8 days incubation) of over 10 µM. Besides, the EC90 in series [2] was found to be 8.65 µM.

Compound `CC(C)C[C@H]1C(=O)N[C@@H](c2ccccc2)CN1C(C)c1cc(-c2ccc(F)cc2)on1` (stereo partly drawn) [Compound 511, (3S,6S)-4-(1-(5-(4-fluorophenyl)isoxazol-3-yl)ethyl)-3-isobutyl-6-phenylpiperazin-2-one] returned a CC90 at 8 days in series [1] (MTS assay, 8 days incubation) of over 10 µM. Besides, the EC90 in series [2] was determined as 0.45 µM.

In series [1], `CC(C)C[C@H]1CN(C(=O)c2cc(-c3ccc(C#N)cc3)on2)[C@@H](CC(C)C)C(=O)N1` [Compound 136] yielded a CC90 at 8 days of over 10 µM. Further, the EC90 in series [2] came to 1.53 µM.

Take `CC(C)C[C@H]1C(=O)NC(c2ccccc2)N1C(=O)[C@H]1C[C@@H]1c1ccccc1` (stereo in doubt) [Compound 531, (2R,5S)-5-isobutyl-2-phenyl-1-((1S,2S)-2-phenylcyclopropanecarbonyl)imidazolidin-4-one]: in series [1] (MTS assay, 8 days incubation), the CC90 at 8 days was over 10 µM. In series [2], the EC90 was over 10 µM.
